Numbers after ± are expanded uncertainties.
Test: molar heat capacity at constant pressure
Settings: 101.33 kPa, Crystal, Small (less than 1 g) adiabatic calorimetry

O=C([O][Sb]([c]1ccccc1)([c]1ccccc1)([c]1ccccc1)[c]1ccccc1)c1ccccc1 [tetraphenylantimony benzoate]
Settings | molar heat capacity at constant pressure [J/K/mol]
5 K | 1.72 ± 0.083
5.54 K | 2.34 ± 0.11
5.81 K | 2.55 ± 0.12
6.27 K | 3.24 ± 0.14
6.56 K | 3.56 ± 0.16
6.92 K | 4.25 ± 0.18
7.71 K | 5.93 ± 0.26
7.98 K | 6.39 ± 0.27
8.34 K | 7.12 ± 0.31
8.69 K | 7.77 ± 0.33
9.05 K | 8.56 ± 0.33
9.58 K | 9.73 ± 0.42
10 K | 10.9 ± 0.5
10.05 K | 10.9 ± 0.5
10.43 K | 12 ± 0.5
10.82 K | 13.1 ± 0.58
11.21 K | 14.2 ± 0.58
11.44 K | 14.8 ± 0.58
11.66 K | 15.5 ± 0.67
12.08 K | 16.7 ± 0.67
12.66 K | 18.5 ± 0.75
13.36 K | 20.5 ± 0.83
14.03 K | 22.5 ± 0.91
14.57 K | 24.4 ± 1
15 K | 25.6 ± 1.1
15.26 K | 26.4 ± 0.42
15.94 K | 28.6 ± 0.42
16.62 K | 30.87 ± 0.44
17.29 K | 33.05 ± 0.47
17.96 K | 35.26 ± 0.49
18.62 K | 37.36 ± 0.52
18.8 K | 38.09 ± 0.52
19.31 K | 39.63 ± 0.54
19.97 K | 41.7 ± 0.56
20 K | 41.81 ± 0.57
20.6 K | 43.6 ± 0.58
22.51 K | 49.65 ± 0.64
25 K | 57.77 ± 0.72
25.94 K | 60.95 ± 0.75
29.45 K | 71.99 ± 0.84
30 K | 73.7 ± 0.81
31.45 K | 78.36 ± 0.86
33 K | 82.85 ± 0.91
33.62 K | 84.64 ± 0.91
35 K | 88.8 ± 1
35.87 K | 91.21 ± 1
36.5 K | 93.12 ± 1
40 K | 102.8 ± 1.1
40.06 K | 103.7 ± 0.58
43 K | 111 ± 0.67
45 K | 115.8 ± 0.67
46.68 K | 120.9 ± 0.67
49.76 K | 127.9 ± 0.75
50 K | 128 ± 0.75
53.38 K | 136.9 ± 0.75
57.02 K | 145.6 ± 0.83
60 K | 151.4 ± 0.83
60.66 K | 154.2 ± 0.91
64.31 K | 162 ± 0.91
67.97 K | 169.5 ± 0.91
70 K | 174.2 ± 1
71.63 K | 177 ± 1
75.29 K | 185.6 ± 1.1
78 K | 192 ± 1.1
80 K | 195.9 ± 1.1
82.52 K | 200.4 ± 1.1
83.53 K | 202.5 ± 1.2
85.67 K | 207 ± 1.2
88.37 K | 212.3 ± 1.2
90 K | 214.8 ± 1.2
90.22 K | 215.5 ± 1.2
92.48 K | 218.9 ± 1.2
93.76 K | 221 ± 1.2
95.63 K | 223.7 ± 1.2
99.16 K | 228.6 ± 1.2
100 K | 229.7 ± 1.2
102.7 K | 234 ± 1.2
106.23 K | 240 ± 1.2
109.78 K | 244.9 ± 1.2
113.32 K | 250.2 ± 1.3
116 K | 255 ± 1.3
119.8 K | 262 ± 1.3
120 K | 262 ± 1.3
123.36 K | 267.2 ± 1.4
126.75 K | 273.3 ± 1.4
128 K | 275.2 ± 1.4
132.8 K | 282.4 ± 1.5
136 K | 287 ± 1.5
139.71 K | 293.3 ± 1.5
140 K | 293.6 ± 1.5
144.47 K | 301.3 ± 1.6
146.16 K | 303.1 ± 1.6
151.28 K | 310.8 ± 1.6
155 K | 315 ± 1.7
158.48 K | 321.9 ± 1.7
160 K | 324.2 ± 1.7
161 K | 326 ± 1.7
164.87 K | 332.4 ± 1.7
168.1 K | 336.4 ± 1.7
169.28 K | 338.2 ± 1.7
172.52 K | 344.3 ± 1.7

Reference: the NIST ThermoML archive (doi:10.1016/j.jct.2018.11.011)
